According to US7794995B2, “Purified PKB Ser 473 kinase and uses thereof” (priority 2002, dated 2010):
Entries after “also recorded” stand apart in the source; their conditions may differ.

Columns and labels:
[1] = system: PKB Ser473 kinase; conditions: second kinase activity, taken to be the PKB Ser473 kinase; 0-100 microM tested
[2] = system: PKB Ser473 phosphorylation; conditions: literature: Hill et al. 2001; Alessi et al. 1996; cited from earlier work
[3] = target: T1, PDK1 (Homo sapiens, UniProt O15530); conditions: literature: Hill et al. 2001; cited from earlier work
T1 sequence (O15530 1-556): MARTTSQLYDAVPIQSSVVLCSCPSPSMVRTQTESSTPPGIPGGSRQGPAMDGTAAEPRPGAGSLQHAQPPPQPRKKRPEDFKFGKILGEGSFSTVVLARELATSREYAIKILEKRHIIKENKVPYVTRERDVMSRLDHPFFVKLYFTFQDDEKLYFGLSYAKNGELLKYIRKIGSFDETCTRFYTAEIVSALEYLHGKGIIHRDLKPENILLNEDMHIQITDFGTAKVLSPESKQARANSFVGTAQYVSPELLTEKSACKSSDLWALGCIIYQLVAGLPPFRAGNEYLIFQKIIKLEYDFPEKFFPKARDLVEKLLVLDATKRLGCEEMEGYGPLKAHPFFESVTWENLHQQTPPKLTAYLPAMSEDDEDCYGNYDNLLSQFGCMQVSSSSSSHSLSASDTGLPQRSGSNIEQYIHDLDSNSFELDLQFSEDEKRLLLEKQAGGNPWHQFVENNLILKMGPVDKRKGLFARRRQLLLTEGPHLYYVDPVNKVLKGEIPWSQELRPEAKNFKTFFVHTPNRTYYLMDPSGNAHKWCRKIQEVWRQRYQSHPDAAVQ

[4] = system: PKB Ser473 kinase; assay: Ser473 kinase activity (FSY/FAY peptide assay) in subcellular fractions of treated serum-starved HEK293 cells; assay type: cell-based, human; conditions: 0.1 microM insulin, pervanadate 0.1 mM, 10 mins, LY294002 50 microM, 30 mins, versus basal
Protocol: HEK 293 cells transiently transfected with the PKB constructs were serum starved, stimulated or not with 0.1 mM pervanadate for 10 min at 37° C., and subcellular fractions were generated. Briefly, HEK 293 cells were washed once in ice-cold phosphate-buffered saline, and scraped in ice-cold fractionation buffer containing 20 mM HEPES-NaOH, pH 7.4, 250 mM sucrose, phosphatase inhibitors (10 mM sodium fluoride, 1 mM sodium pyrophosphate, 0.1 mM sodium orthovanadate, 2 μM microcystin LR [Alexis]), and protease inhibitors (1 mM PMSF and 1 mM benzamidine). After homogenization either by 10 passes through a 26-gauge needle, or by using a Kinematica homogenizer (10 strokes on speed 2 followed by 30 strokes on speed 10), subcellular fractions were prepared as previously described (Hill and Hemmings, 2002, Methods Enzymol 345: 448-463). The plasma membrane pellets were resuspended in 50 mM Tris-HCl (pH7.4) containing protease and phosphatase inhibitors as described above. Protein concentration of the subcellular fractions was determined by the Bradford method (Bio-Rad), using bovine serum albumin as standard. […]
Next, it was examined if membrane-associated Ser473 kinase activity was dependent on PI3-kinase signalling. […] PM fractions were assayed for Ser473 kinase activity, and also analyzed by immunoblotting for phospho-PKB and total PKB.

[5] = system: PKB phosphorylation on Thr308 and Ser473; assay: Immunoblotting of plasma membrane fractions for phospho-PKB and total PKB after cell treatment; assay type: cell-based, human; conditions: serum-starved HEK293 cells, immunoblot; for PKB phosphorylation on Thr308 and Ser473: 0.1 microM insulin, pervanadate 0.1 mM, 10 mins
Protocol: The presence of PKB in each fraction was determined by immunoblotting with an anti-HA antibody (12CA5). In addition, the phosphorylation status of PKB in each of the fractions was assessed by immunoblotting with phospho-specific PKB antibodies after immunoprecipitation with the HA antibody. Briefly, following SDS-PAGE, proteins were transferred onto Immobilon-P membranes (Millipore). Non-specific signals were blocked by incubating the membrane in TBST buffer (50 mM Tris-HCl, pH 7.4, 150 mM NaCl, 0.1% Tween-20) containing 5% skim milk for 1 hour at room temperature. Incubation with antibodies was performed in TBST for phospho-specific antibodies, TBST containing 1% skim milk for polyclonal antibodies and TBST containing 5% skim milk for monoclonal antibodies, at 4° C. overnight. Antibodies specific for PKB phosphorylated on Thr308 are commercially available (Cell Signalling Technologies). Antibodies specific for PKB phosphorylated on Ser473 was produced and purified as previously described (Hill and Hemmings, 2002, Methods Enzymol 345: 448-463). Pan-PKB antibody has been previously described (Jones et al., 1991, Proc Natl Acad Sci USA 88: 4171-4175).
Next, it was examined if membrane-associated Ser473 kinase activity was dependent on PI3-kinase signalling. Serum-starved HEK293 cells were treated with 0.1 microM insulin, the insulin mimetic pervanadate (0.1 mM, 10 mins.), the PI 3-kinase inhibitor LY294002 (50 microM, 30 mins.), or left untreated. PM fractions were assayed for Ser473 kinase activity, and also analyzed by immunoblotting for phospho-PKB and total PKB.

[6] = system: PKBα; assay: Subcellular fractionation of HEK 293 cells transfected with PKB constructs, anti-HA immunoblotting; assay type: cell-based, human; conditions: 0.1 mM pervanadate, 10 min, 37° C., serum-starved transfected HEK 293 cells
From the text: In order to characterize and purify the PKB Ser473 kinase, we reasoned that the kinase might be constitutively active at the plasma membrane (PM). To this end, we developed a subcellular fractionation protocol to generate fractions enriched in the PM. To determine the efficacy of the procedure, the fractionation behavior of products of two PKB constructs was examined: hemagglutinin (HA) tagged PKBα (HA-PKBα) and HA-PKBα containing a myristoylation/palmitylation signal (m/p-HA-PKBα).
HEK 293 cells transiently transfected with the PKB constructs were serum starved, stimulated or not with 0.1 mM pervanadate for 10 min at 37° C., and subcellular fractions were generated. […] Protein concentration of the subcellular fractions was determined by the Bradford method (Bio-Rad), using bovine serum albumin as standard. […]
The presence of PKB in each fraction was determined by immunoblotting with an anti-HA antibody (12CA5). In addition, the phosphorylation status of PKB in each of the fractions was assessed by immunoblotting with phospho-specific PKB antibodies after immunoprecipitation with the HA antibody. […]

Compound | Staurosporine concentration up to which the kinase activity is insensitive [1] | Sensitivity of insulin-stimulated PKB Ser473 phosphorylation to the inhibitor [2] | Effect on PDK1 [3] | Ser473 kinase activity in plasma membrane fractions [4] | PKB phosphorylation on Thr308 and Ser473 [5] | Potency as activator of PKB phosphorylation compared with insulin [5] | Translocation of membrane-targeted m/p-HA-PKBα [6] | Translocation of wild type HA-PKBα to the plasma membrane fraction [6]
CN[C@@H]1C[C@H]2O[C@@](C)([C@@H]1OC)n1c3ccccc3c3c4c(c5c6ccccc6n2c5c31)C(=O)NC4 [staurosporine] | > 100 µM | staurosporine-insensitive; also recorded: not sensitive | inhibits PDK1 | – | – | – | – | –
insulin | – | – | – | neither stimuli increased Ser473 kinase activity above basal levels | induced PKB phosphorylation on both Thr308 and Ser473 | – | – | –
pervanadate | – | – | – | neither stimuli increased Ser473 kinase activity above basal levels | induced PKB phosphorylation on both Thr308 and Ser473 | more potent activator of PKB phosphorylation than insulin | no translocation was observed | A portion of PKBα translocated to the PM fraction
